Patent publication US20130236966A1, “NK-1 Receptor Mediated Delivery of Agents to Cells” (THE UNIVERSITY OF CHICAGO, priority 2007, published 2013)
Ends that are not written are not given here. Alexa555 = Alexa Fluor 555 thiol-reactive fluorophore

Legend:
[1] = tested on: HeLa cells transfected with the NK-1 receptor; assay: delivery of a polynucleotide encoding GFP; type: cell-based, human; conditions: 200 pM, FIG. 7
Description: (§1) NK-1 receptor transfection: A plasmid coding for the human NK-1 receptor in the mammalian expression vector pCDNA3(+) (provided by Dr. Robert Lefkowitz, Duke University) was transfected into HeLa cells using Lipofectamine 2000 according to manufacturer protocol, with 1 ng of the plasmid for each well containing 10^4 HeLa cells seeded on an 18 mm cover-slip in a 12-well plate.
To determine if other types of agents could also be delivered to cells expressing NK-1 receptors in accordance with the invention, HeLa cells transfected with the NK-1 receptor as described above, were incubated with an SP-polynucleotide conjugate. The polynucleotide encoded GFP operably linked to a promoter functional in the cells. The polynucleotide was also fluorescently tagged with Alexa-647 such that delivery of the polynucleotide into the cell could be monitored as well as expression of GFP.

[2] = tested on: HeLa cells transfected with a plasmid coding for the NK-1 receptor; assay: confocal microscopy of NK-1 receptor-mediated internalization in transfected HeLa cells; type: cell-based, human
Description: as §1
(§2) Confocal Microscopy: For each sample, 10^4 U87 cells were seeded on an 18 mm cover-slip in MEM with 10% FBS overnight in a 12-well plate, then starved in MEM with 0.1% BSA for 3 hrs. The reagent (SP-sAB conjugate, SP-Fluorophore or sAB only) was filter-sterilized, diluted to the desired final concentration in MEM 0.1% BSA and added directly to the live cells in each well for 2 hrs. Untreated cells served as a negative control. Following incubation with the reagent, the cells were washed with PBS and fixed in 4% p-formaldehyde. The cells were permeablized in TBS-Tween and blocked with 10% Normal Goat Serum for 1 hr. Actin filaments were stained with FITC-phalloidin (1:250 dilution), or TRITC-phalloidin (1:3000 dilution) for 1 hr at room temperature. Nuclei were stained with DAPI (10 μg/mL) or Hoechst reagent (Invitrogen, 1:2000) for 5 minutes at room temperature. Samples were mounted using ProLong Gold reagent (Invitrogen). Confocal microscopy images were collected using a Leica SP2 with Alexa 488, Alexa 555 or Cy3 and Alexa 574 or Cy5 excited with the 488 nm laser, the 543 nm laser and the 633 laser, respectively. Multicolored images were overlaid using the imageJ software.
The ability to specifically deliver functional biomolecular agents to living cells can be a powerful research tool for studying molecular processes. Introduction of the NK-1 receptor is sufficient for the uptake of fluorescently-labeled SP. […] HeLa cells transfected with a plasmid coding for the NK-1 receptor were incubated for 2 hours with 20 nM fluorescently-labeled SP. The cells were then stained with phalloidin for visualization of actin structure.

U87 glioblastoma cells [3] = assay: MTS proliferation / cell viability assay; type: cell-based, human; conditions: 10 nM or 20 nM, 48 hrs, FIG. 5a
Description: MTS proliferation assay: U87 cells were seeded in 96-well plates at density 5000 cells/well in 0.1 mL of growth media. Cells were attached overnight and starved for 3 hours. Cells were stimulated with 20 nM sAB27-SP conjugate for 3, 5, 9, 24 and 48 hours, and SP or sAB27 alone for 48 hours in starving media. 20 μL of the MTS-based CellTiter 96 Aqueous One Solution reagent was added to each well. The plate was incubated in a humidified, 5% CO2 atmosphere until color was developed and the absorbance was recorded at 490 nm.
Due to the actin-bundling activity of sAB-27, its effect on the viability of U87 glioblastoma cells following SP-mediated delivery was investigated. Live U87 cells were treated with either 10 nM or 20 nM of the SP-sAB-27 conjugate and a cell viability assay was carried out at different time points up to 48 hrs after treatment. The viability of cells incubated with the conjugates was compared with that of cells treated with SP alone or sAB-27 alone, as well as untreated cells.

U87 glioblastoma cells [4] = assay: confocal microscopy of internalization in U87 glioblastoma cells; type: cell-based, human; conditions: FIG. 3b
Description: (§3) Cell lines: U87 human glioblastoma-astrocytoma epithelial-like cells (provided by Prof. Maciej S. Lesniak, University of Chicago Medical Center) were cultured in MEM with penicillin/streptomycin and 10% FBS. Normal human astrocytes (NHA) were purchased from Lonza and cultured in astrocyte growth media (Lonza) supplemented with rhEGF; Insulin, Ascorbic Acid, GA-1000, L-Glutamine and 5% FBS. HeLa cells (provided by Dr. Ronald Rock, University of Chicago) were grown in DMEM pencillin/streptomycin and with 10% FBS.
as §2, with “Samples were mounted using ProLong Gold reagent (Invitrogen). Confocal microscopy images were collected using a Leica SP2 with Alexa 488, Alexa 555 or Cy3 and Alexa 574 or Cy5 excited with the 488 nm laser, the 543 nm laser and the 633 laser, respectively. Multicolored images were overlaid using the imageJ software.” left out

[5] = tested on: normal human astrocytes (NHA); assay: confocal microscopy of internalization in normal human astrocytes; type: cell-based; conditions: FIG. 3c
Description: as §3
as §2, with “Samples were mounted using ProLong Gold reagent (Invitrogen). Confocal microscopy images were collected using a Leica SP2 with Alexa 488, Alexa 555 or Cy3 and Alexa 574 or Cy5 excited with the 488 nm laser, the 543 nm laser and the 633 laser, respectively. Multicolored images were overlaid using the imageJ software.” left out

With “SP-polynucleotide conjugate: SP conjugated to an Alexa-647 tagged polynucleotide encoding GFP operably linked to a promoter (RPKPQQFFGLM; ends and bridges not checked; also: conjugated to Alexa-647 tagged GFP-encoding polynucleotide, site not given here; UniProt P20366 58-68, looked up)” the “internalization of the Alexa-647 tagged polynucleotide” value ([1]; 2 hours) was “internalized after 2 hours”, the “localization of the internalized polynucleotide” value ([1]; 2 hours) was “at least a portion co-localized with the nucleus of the cell” and the “expression of GFP” value ([1]; 24 hours, confocal microscopy) was “expression of GFP after 24 hours”.

“SP: 11-amino acid peptide that is rapidly internalized upon binding to the NK-1 receptor; used alone as control (RPKPQQFFGLM; ends and bridges not checked; UniProt P20366 58-68, looked up)” was tested, and the “localization with actin / effect on actin structure” value ([2]; 20 nM, phalloidin staining, FIG. 2) was “no specific localization with actin and no apparent effect on the structure of the actin filaments” and the cell viability (U87 glioblastoma cells [3]) was “no effect on viability”.

“SP-Alexa555: variant of SP with a cysteine at position 3 carrying a thiol-reactive fluorophore; positive control for NK-1 receptor-mediated internalization (RPC(Alexa555)PQQFFGLM; ends and bridges not checked)” was tested, and the “internalization by U87 cells” value (U87 glioblastoma cells [4]; 100 nM (figure legend)) was “internalization”, the “internalization by U87 cells” value (U87 glioblastoma cells [4]; 200 nM, 2 hr) was “readily internalize” and the “internalization by transfected cells” value ([2]; 20 nM, 2 hours, confocal microscopy) was “rapid internalization”. For the same substance, the “effect on actin structure” value ([2]; 100 nM, FITC-phalloidin, FIG. 2a,b) was “actin structure is unaffected”, the “internalization by NHA” value ([5]; 100 nM (figure legend)) was “no internalization was observed” and the “internalization by normal astrocytes” value ([5]; 200 nM, 2 hr) was “undetectable”.
